Experimental data reported in patent publication US20080175892A1, “Nanostructure-Drug Conjugates” (priority 2006, published 2008).

Assay: Aggregation in aqueous solution by particle-size analyzer (light scattering)
Type: physicochemical
Settings: aqueous solution (10% DMSO), 4 and 0.04 μg/mL solutions
Text: Thus, the aggregation properties of 6 and paclitaxel were studied as a function of concentration in aqueous solution (10% DMSO) using a Brookhaven 90Plus submicrometer particle-size analyzer.

light scattering (aggregation): did not show any scattering
Structure (SMILES): CC(=O)O[C@H]1C(=O)[C@@]2(C)[C@H]([C@H](OC(=O)c3ccccc3)[C@]3(O)C[C@H](OC(=O)[C@H](O)[C@@H](NC(=O)c4ccccc4)c4ccccc4)C(C)=C1C3(C)C)[C@]1(OC(C)=O)CO[C@@H]1C[C@@H]2O [paclitaxel, Paclitaxel]
